Results on 3 sequences are retold here after patent US20180339016A1 (priority 2015, published 2018).

The subject of assay [1] is Escherichia coli (ATCC 25922). The settings on record: peptide alone; peptide concentration required to inhibit growth by 20% (so in the source). The method, then: (§1) The N-terminus of the peptides were acetylated and the C-terminus was amidated. The kinked structure can rapidly reduce the alpha-helical content, thereby greatly reducing the toxicity of the peptide against host cells. In addition, because of the potential to show specificity for the Gram-negative bacterial membrane, Pro-mutants were prepared by site-directed mutagenesis. Using the prepared peptides, their MIC for the Gram-negative bacterium E. coli and the Gram-positive bacterium S. aureus and their hemolytic activity for host cells were examined (Table 1).
To measure the synergy between the membrane-activating peptides and the repositioning drug, a 10× compound was prepared, and then serially diluted ⅔-fold with distilled water. An MH broth (900 μl) was added to and mixed with the 10× compound (100 μl), and then 200 μL of the mixture was taken and added to a 96-well plate. E. coli cultured for one day was adjusted to 0.5 MCF using MCFarland, and diluted 10-fold, and then 10 μl of the dilution was added to each well of the plate (5×10^5 CFU/mL). After addition of the bacterial cells, plate was incubated at 37° C. for 18 hours, and then the OD value at UV-Vis (600 nm) was measured. Cell viability (%)=(OD600 of sample−OD600 of negative control)/(OD600 of positive control−OD600 of negative control)×100.

In assay [2] the test system is Staphylococcus aureus (ATCC 29213). The assay can be described thus: MIC of peptide against S. aureus. The format is cell-based. The settings on record: peptide alone. How it is done: as §1
Another assay deals with E. coli NDm-1. The assay can be described thus: Confocal microscopy of TAMRA-conjugated peptide. The settings on record: 2.5 μM peptide, 30 minutes, FIG. 8. The format is cell-based. The method, then:
E. coli NDm-1 was diluted when it reached OD600=0.5. The microorganism was treated with 2.5 μM of the peptide in a 37° C. incubator for 30 minutes. LK-L12P was used as a positive control.

In a further assay the test system is E. coli ATCC 25922. The settings on record: Table 4; for MIC (μM) against E. coli ATCC 25922, Peptide alone: bacterial growth <10% of control.

With LKKLLKLLKKLPKL [LK-L12P], in assay [1], the “MIC [μM] Against E. coli” value turned out to be 2.5 µM. For the same sequence, the “MIC [μM] Against S. aureus” value in assay [2] stood at 10 µM. Further, in the assay on E. coli NDm-1, the “confocal image: membrane leakage / distribution of TAMRA-labeled peptide” value is “strongly induced leakage from the inner membrane and the outer membrane”.
Consider LKKLLKLLKKPLKL [LK-L11P], for which, in assay [1], the “MIC [μM] Against E. coli” value worked out at 5 µM. In addition, the “MIC [μM] Against S. aureus” value in assay [2] is over 40 µM. Moreover, in the assay with E. coli ATCC 25922, the “Fractional Inhibitory Concentration Index (FICI), Colistin & 1 μM peptide” value is 0.83, Synergism and the “MIC (μM) against E. coli ATCC 25922, Peptide alone” value worked out at 3 µM.
Regarding KLLKLPKKLLKLLK [KL-L6P], in assay [1], the “MIC [μM] Against E. coli” value turned out to be 10 µM. The “MIC [μM] Against S. aureus” value in assay [2] is over 40 µM. For the same sequence, in the assay with E. coli ATCC 25922, the “Fractional Inhibitory Concentration Index (FICI), Colistin & 1 μM peptide” value was 0.83, Synergism and the “MIC (μM) against E. coli ATCC 25922, Peptide alone” value amounted to 3 µM.
